Data reported in ChEMBL document CHEMBL5154710, “Discovery of small molecules interacting at lactate dehydrogenases tetrameric interface using a biophysical screening cascade” (Eur J Med Chem, 2022).

What was measured:
[1] = Destabilization of Red-dye-NHS fluorescent-labeled human LDH-1 expressed in Escherichia coli assessed as dissociation constant by MST assay
[2] = species: Homo sapiens; assay: Destabilization of human LDH-1expressed in Escherichia coli assessed as change in melting temperature at 1 mM heated for 3 mins by NanoDSF assay
[3] = species: Homo sapiens; assay: Destabilization of human LDH-5 expressed in Escherichia coli assessed as change in melting temperature at 1 mM heated for 3 mins by NanoDSF assay
[4] = Destabilization of Red-dye-NHS fluorescent-labeled human LDH-5 expressed in Escherichia coli assessed as dissociation constant by MST assay
[5] = species: Homo sapiens; assay: Stabilization of human LDH-Htr expressed in Escherichia coli assessed as change in melting temperature at 1 mM heated for 3 mins by NanoDSF assay
[6] = Stabilization of Red-dye-NHS fluorescent-labeled human LDH-Htr expressed in Escherichia coli assessed as dissociation constant by MST assay
[7] = Inhibition of LDH-5 (unknown origin) assessed as denaturation of LDH-5 using NADH and pyruvate as substrate by spectrophotometric analysis; design: species or system Homo sapiens
[8] = species: Homo sapiens; assay: Displacement of macro-cycle 7 from human LDH-Htr expressed in Escherichia coli assessed as decay in saturation transfer at 100 uM by saturation transfer difference-1H NMR analysis

Nc1nc2ccccc2n1Cc1ccc(F)cc1
Kd [1]: 48 µM | ΔTm [2]: 0.4 °C | ΔTm [3]: -2.6 °C | Kd [4]: 324 µM | ΔTm [5]: 0.8 °C | Kd [6]: 183 µM

Cc1ccc(/C(=C\CN2CCCC2)c2ccccn2)cc1 [TRIPROLIDINE]
IC50 [7]: 7.6 mM | Activity [8]: 40%

CNCCCC12CCC(c3ccccc31)c1ccccc12
ΔTm [2]: -1.4 °C | ΔTm [3]: -2.7 °C | ΔTm [5]: 4.6 °C

O=C(O)c1ccccc1Nc1cccc(C(F)(F)F)c1 [FLUFENAMIC ACID]
Kd [1]: 1700 µM | ΔTm [2]: 0.4 °C | ΔTm [3]: -1.7 °C | ΔTm [5]: 1.9 °C | Kd [6]: 900 µM

O=C(O)c1cc(-c2ccc(F)cc2F)ccc1O [DIFLUNISAL]
Kd [1]: 116 µM | ΔTm [2]: 0.1 °C | ΔTm [3]: -2.1 °C | Kd [4]: 343 µM | ΔTm [5]: 3.1 °C | Kd [6]: 1000 µM
